Assay results published in publication PMC6536413, “Application of ultrasound‐guided cholecystocentesis to the evaluation of the metabolite profiling in bile of dogs and cynomolgus monkeys” (Pharmacology Research & Perspectives, 2019).
Marks after values point to notes of the source that are not given here.

How the values were obtained:
[1] = Metabolite profile of ATV in monkey bile (LC-MS, UV 254 nm); assay type: in vivo, cynomolgus macaques; settings: UV chromatograms
[2] = Metabolite profile of ATV in dog bile (LC-MS, UV 254 nm); assay type: in vivo, beagle dogs; settings: based on the UV chromatograms
Protocol: Dog bile samples obtained by cholecystocentesis were pooled across animals (n = 3). Samples were mixed with an equal volume of citrate buffer (100 mmol/L) to make the final buffer concentration of 50 mmol/L. The mixture was mixed by vortexing for 1 minute and then centrifuged at 12 000× g for 15 minutes. An aliquot (5‐10 μL) of the supernatant was injected onto the UHPLC column for LC‐MS/MS‐based analysis.
The metabolite profile was obtained using LTQ‐Orbitrap coupled with Accela UHPLC and PDA (ThermoScientific, San Jose, CA) and a CTC PAL autosampler equipped with a cooling stack that maintained samples at 4°C during analysis. A 20‐minute UHPLC method was developed. The column was Acquity UPLC HSS T3 (Waters, Milford, MA) 2.1 × 150 mm, 1.8 µm. The column was maintained at a temperature of 55°C. The mobile phase consisted of 0.1% formic acid in water (solvent A) and 0.1% formic acid in acetonitrile (solvent B) at a flowrate of 600 µL/min with the following linear gradient conditions: 5% A for 0.5 minutes, 20‐60% B over 14 minutes, 95% B over 3 minutes, and 5% B isocratic for 2 minutes. Instrument settings were as follows: m/z range: 100 to 1000, capillary temperature was set at 280°C, nitrogen sheath gas flow rate 80 (arbitrary units), auxiliary gas 20, spray voltage 4.0 kV, and tube lens offset 80 V. In addition, UV wavelength was monitored at 254 nm.

[3] = Concentration of ATV and metabolites in monkey bile obtained by BDC and UCC (LC-MS/MS); assay type: in vivo, cynomolgus macaques; settings: UCC monkeys, 4‐5 h, 30 mg/kg ATV orally, ± standard deviation
[4] = Plasma pharmacokinetics of ATV and metabolites in BDC and UCC dogs (LC-MS/MS); assay type: in vivo; settings: male, beagle, dog, po, 40 mg/kg, 40 mg/kg oral dose of ATV, ± standard deviation; for AUC: read-out: AUC0‐24h
Protocol: (§1) Plasma samples were collected at 0.5, 1, 2, 4, 6, and 24 hours postdose via cephalic vein or indwelling cephalic catheter. At the 6‐ and 24‐hours postdose time points, dogs were sedated with propofol at 6 mg/kg through an indwelling cephalic catheter. The dogs were then positioned in a dorsal‐recumbency with head elevated. Heart rate, rhythm, and arterial oxygen saturation were monitored throughout the procedure. After shaving and aseptically preparing the abdominal skin immediately caudal to the xiphoid process, an ultrasound exam of the gallbladder and cranial abdomen was done using a Mylab30cv ultrasound system with 9‐3 MHz micro‐convex transducer (Esoate, Indianapolis, IN). A 21‐gauge, 1.5‐inch needle, attached to a 5‐mL syringe, was inserted percutaneously through the abdominal wall into the gallbladder lumen. Effort was made to completely empty the gallbladder by aspiration (typically, 2‐5 mL bile was obtained). The needle and syringe were withdrawn and the bile samples were immediately saved on dry ice for later analysis. Dogs were allowed to recover in their home cages. Both plasma and bile samples were stored at −20°C until analysis.
(§2) Plasma samples were collected from dogs and monkeys at 0.5, 1, 2, 4, 6, and 24 hours postdose. Bile samples were collected at 0‐2 hours, 2‐4 hours, 4‐6 hours, 6‐8 hours, and 8‐24 hours intervals. Both plasma and bile samples were stored at −20°C until analysis.
(§3) Standard curves and quality control (QC) samples defining the dynamic range of the bioanalytical method were prepared in commercially available control plasma and processed in the same fashion as the test samples. When dilutions were required, an aliquot of the sample was diluted into control plasma. […] The supernatant was then separated from the precipitated proteins after a 10‐minute centrifugation at 3500 rpm (2109× g) at 10°C and transferred to an autosampler 96‐well plate. An aliquot (10 µL) was injected onto the ultrahigh performance liquid chromatography (UHPLC) column for LC‐MS/MS‐based analysis. Samples from individual animals were not pooled prior to quantitative analysis.
(§4) The UHPLC system Nexera (Shimadzu, Japan) consisted of two pumps (LC30AD), a column heater (CTO‐30A), and an autosampler (SIL‐30AC) equipped with a cooling compartment that maintained samples at 15°C during analysis. The analytical column used was a BEH C18 2.1 mm × 50 mm, 1.7 µm (Waters Corporation, Milford, MA) at 50°C. The mobile phase, which consisted of 0.1% formic acid in water (A) and acetonitrile (B), was delivered at a flow rate of 0.6 mL/min. The initial conditions were 100% aqueous followed by 1‐minute gradient to 100% acetonitrile then hold for 0.4 minutes and back to initial conditions.
(§5) The UHPLC was interfaced to a Finnigan TSQ Quantum Ultra LC‐MS/MS tandem mass spectrometer (Thermo Electron Corporation) equipped with heated electrospray ionization (HESI‐II) interface operating in the positive ionization mode. Ultrahigh‐purity nitrogen was used as the sheath and auxiliary gases at flow rates of 55 L/h for sheath and 25 L/h for auxiliary. The desolvation temperature was 300°C and the source temperature was 350°C. The detection of each analyte was achieved through selected reaction monitoring. […]
(§6) The peak concentration (Cmax) and time for Cmax (Tmax) were recorded directly from experimental observations. The area under the curve from time 0 to 24 hours (AUC0‐24h) was calculated using a combination of linear and log trapezoidal summations.

[5] = Plasma pharmacokinetics of ATV and metabolites in BDC and UCC monkeys (LC-MS/MS); assay type: in vivo, cynomolgus macaques; settings: for Cmax / Tmax / AUC: male, cynomolgus, cynomolgus monkey, plasma, po, 30 mg/kg, 30 mg/kg oral dose of ATV, ± standard deviation; for AUC: read-out: AUC0‐24h; for plasma concentration: both the UCC and BDC monkey plasma samples, 30 mg/kg ATV orally
Protocol: (§7) Plasma and bile samples were collected. For bile collection monkeys were sedated with ketamine (8 mg/kg) and dexmedetomidine (0.05 mg/kg) intramuscularly. At the conclusion of the procedure, sedation was reversed with atipamezole (0.15 mg/kg) intramuscularly. All other procedures were the same as for the dog.
as §2, §3, §4, §5, §6

[6] = Concentration of ATV and metabolites in monkey bile obtained by BDC and UCC (LC-MS/MS); assay type: in vivo, cynomolgus macaques; settings: for Concentration in bile: BDC monkeys, 30 mg/kg ATV orally; for concentration at 24 h: male, cynomolgus, cynomolgus monkey, bile, po, 30 mg/kg
Protocol: as §7, §2, §3, §4, §5

[7] = Concentration of ATV and metabolites in dog bile obtained by BDC and UCC (LC-MS/MS); assay type: in vivo, beagle dogs; settings: for Concentration in bile: BDC dogs, 40 mg/kg ATV orally, ± standard deviation; for concentration at 6 h / concentration at 24 h: male, beagle, dog, bile, po, 40 mg/kg
Protocol: as §1, §2, §3, §4, §5

[8] = 0‐2 h, n = 2 due to blocked/displaced cannulas
[9] = 6‐8 h, n = 2 due to blocked/displaced cannulas

CC(C)c1c(C(=O)Nc2ccccc2O)c(-c2ccccc2)c(-c2ccc(F)cc2)n1CC[C@@H](O)C[C@@H](O)CC(=O)O [2‐OH ATV, 2‐hydroxyatorvastatin]
abundance of metabolite in bile [1]: major oxidative metabolites
abundance of metabolite in bile [2]: major oxidative metabolites
Concentration in bile [3]: 334 ± 70 µM
Cmax ([4]; BDC dogs (n = 3)): 0.352 ± 0.28 µM
Tmax ([4]; BDC dogs (n = 3)): 2 h
AUC ([4]; BDC dogs (n = 3)): 0.667 ± 0.203 µM·h
Cmax ([4]; UCC dogs (n = 3)): 0.215 ± 0.095 µM
Tmax ([4]; UCC dogs (n = 3)): 1.7 ± 0.6 h
AUC ([4]; UCC dogs (n = 3)): 0.736 ± 0.066 µM·h
Cmax ([5]; BDC monkeys (n = 4)): 0.055 ± 0.02 µM
Tmax ([5]; BDC monkeys (n = 4)): 9 ± 10.1 h
Cmax ([5]; UCC monkeys (n = 3)): 0.031 ± 0.018 µM
Tmax ([5]; UCC monkeys (n = 3)): 2 ± 1.7 h
AUC ([5]; BDC monkeys (n = 4)): 0.664 ± 0.347 µM·h
AUC ([5]; UCC monkeys (n = 3)): 0.057 ± 0.008 µM·h
Concentration in bile [6, 8]: 112 µmol/L
Concentration in bile ([6]; 2‐4 h, ± standard deviation): 317 ± 66 µmol/L
Concentration in bile ([6]; 4‐6 h, ± standard deviation): 412 ± 302 µmol/L
Concentration in bile [6, 9]: 306 µmol/L
Concentration in bile ([6]; 8‐24 h, ± standard deviation): 303 ± 151 µmol/L
concentration at 24 h [6]: 586 ± 127 µM
Concentration in bile ([7]; 0‐2 h): 256 ± 284 µM
Concentration in bile ([7]; 2‐4 h): 690 ± 296 µM
Concentration in bile ([7]; 4‐6 h): 337 ± 266 µM
Concentration in bile ([7]; 6‐8 h): 168 ± 134 µM
Concentration in bile ([7]; 8‐24 h): 27 ± 19 µM
concentration at 6 h [7]: 151 ± 53 µM
concentration at 24 h [7]: 63 ± 65 µM

CC(C)c1c(C(=O)Nc2ccccc2O)c(-c2ccccc2)c(-c2ccc(F)cc2)n1CC[C@@H]1C[C@@H](O)CC(=O)O1 [2‐OH ATV‐L, 2‐hydroxyatorvastatin lactone]
Concentration in bile [3]: 73 ± 19 µM
Cmax ([5]; BDC monkeys (n = 4)): 0.024 ± 0.006 µM
Tmax ([5]; BDC monkeys (n = 4)): 4 ± 1.6 h
Cmax ([5]; UCC monkeys (n = 3)): 0.039 ± 0.029 µM
Tmax ([5]; UCC monkeys (n = 3)): 1.3 ± 0.6 h
AUC ([5]; BDC monkeys (n = 4)): 0.116 ± 0.045 µM·h
AUC ([5]; UCC monkeys (n = 3)): 0.035 ± 0.007 µM·h
Concentration in bile [6, 8]: 36 µmol/L
Concentration in bile ([6]; 2‐4 h, ± standard deviation): 93 ± 57 µmol/L
Concentration in bile ([6]; 4‐6 h, ± standard deviation): 67 ± 35 µmol/L
Concentration in bile [6, 9]: 52 µmol/L
Concentration in bile ([6]; 8‐24 h, ± standard deviation): 18 ± 19 µmol/L
concentration at 24 h [6]: 147 ± 44 µM

CC(C)c1c(C(=O)Nc2ccc(O)cc2)c(-c2ccccc2)c(-c2ccc(F)cc2)n1CC[C@@H](O)C[C@@H](O)CC(=O)O [4‐OH ATV, 4‐hydroxyatorvastatin]
abundance of metabolite in bile [1]: major oxidative metabolites
abundance of metabolite in bile [2]: major oxidative metabolites
Concentration in bile [3]: 271 ± 185 µM
Cmax ([4]; BDC dogs (n = 3)): 0.138 ± 0.12 µM
Tmax ([4]; BDC dogs (n = 3)): 2.7 ± 1.2 h
AUC ([4]; BDC dogs (n = 3)): 0.293 ± 0.038 µM·h
Cmax ([4]; UCC dogs (n = 3)): 0.082 ± 0.03 µM
Tmax ([4]; UCC dogs (n = 3)): 3.3 ± 1.2 h
AUC ([4]; UCC dogs (n = 3)): 0.381 ± 0.128 µM·h
plasma concentration [5]: below the limits of quantitation
Concentration in bile [6, 8]: 56 µmol/L
Concentration in bile ([6]; 2‐4 h, ± standard deviation): 180 ± 68 µmol/L
Concentration in bile ([6]; 4‐6 h, ± standard deviation): 207 ± 116 µmol/L
Concentration in bile [6, 9]: 140 µmol/L
Concentration in bile ([6]; 8‐24 h, ± standard deviation): 181 ± 29 µmol/L
concentration at 24 h [6]: 594 ± 39 µM
Concentration in bile ([7]; 0‐2 h): 501 ± 522 µM
Concentration in bile ([7]; 2‐4 h): 1342 ± 583 µM
Concentration in bile ([7]; 4‐6 h): 862 ± 472 µM
Concentration in bile ([7]; 6‐8 h): 558 ± 356 µM
Concentration in bile ([7]; 8‐24 h): 184 ± 97 µM
concentration at 6 h [7]: 279 ± 60 µM
concentration at 24 h [7]: 262 ± 317 µM

CC(C)c1c(C(=O)Nc2ccc(O)cc2)c(-c2ccccc2)c(-c2ccc(F)cc2)n1CC[C@@H]1C[C@@H](O)CC(=O)O1 [4‐OH ATV‐L, 4‐hydroxyatorvastatin lactone]
Concentration in bile [3]: 9 ± 5 µM
plasma concentration [5]: below the limits of quantitation
Concentration in bile [6, 8]: 2 µmol/L
Concentration in bile ([6]; 2‐4 h, ± standard deviation): 6 ± 3 µmol/L
Concentration in bile ([6]; 4‐6 h, ± standard deviation): 4 ± 2 µmol/L
Concentration in bile [6, 9]: 3 µmol/L
Concentration in bile ([6]; 8‐24 h, ± standard deviation): 2 ^b μmol/L
concentration at 24 h [6]: 19 ± 3 µM
